The structures appear in SMILES notation.

Experiment [1] has as its target T1, FAR-RXRα complex (rat FAR and human RXRα) (Rattus norvegicus, UniProt Q62735, D356M/DEL339-355/E357R/INS337LPDTQTCWKKEFERAAS).
T1 construct: expressed in transfected cells; host or cells: CV-1 cells, CMV-driven expression vectors
T1 sequence (Q62735 1-469): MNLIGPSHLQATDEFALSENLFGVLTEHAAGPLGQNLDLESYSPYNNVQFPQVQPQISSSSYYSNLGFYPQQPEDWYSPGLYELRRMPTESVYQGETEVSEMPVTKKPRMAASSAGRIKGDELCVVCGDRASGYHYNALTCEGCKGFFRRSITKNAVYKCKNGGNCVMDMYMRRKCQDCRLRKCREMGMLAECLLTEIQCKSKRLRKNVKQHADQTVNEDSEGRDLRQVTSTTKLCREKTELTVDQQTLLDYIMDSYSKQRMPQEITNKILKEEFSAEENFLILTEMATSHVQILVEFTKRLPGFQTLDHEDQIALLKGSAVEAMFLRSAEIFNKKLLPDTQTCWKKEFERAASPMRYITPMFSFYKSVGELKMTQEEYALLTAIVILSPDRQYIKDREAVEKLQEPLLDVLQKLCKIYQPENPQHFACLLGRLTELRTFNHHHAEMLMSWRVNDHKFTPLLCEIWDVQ
T1 sequence (P19793 1-462 partner): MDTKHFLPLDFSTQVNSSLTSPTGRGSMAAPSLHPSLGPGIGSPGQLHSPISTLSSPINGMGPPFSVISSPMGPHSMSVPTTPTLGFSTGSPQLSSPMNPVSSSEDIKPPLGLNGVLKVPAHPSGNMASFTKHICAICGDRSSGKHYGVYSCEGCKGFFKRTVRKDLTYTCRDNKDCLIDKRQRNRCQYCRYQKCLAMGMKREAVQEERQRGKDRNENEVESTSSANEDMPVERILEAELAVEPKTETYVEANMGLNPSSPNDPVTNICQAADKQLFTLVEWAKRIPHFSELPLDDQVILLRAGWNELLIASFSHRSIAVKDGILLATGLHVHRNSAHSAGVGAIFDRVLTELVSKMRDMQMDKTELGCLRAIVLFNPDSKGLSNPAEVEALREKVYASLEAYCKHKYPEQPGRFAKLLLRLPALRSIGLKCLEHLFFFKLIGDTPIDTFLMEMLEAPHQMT
Put plainly: hsp27-EcRE×5 MTV-luciferase reporter cotransfection in CV-1 cells expressing FAR and RXRα. It counts as cell-based. As for the experimental part: Thus, CV-1 cells were grown in DMEM supplemented with 10% AG1-X8 resin-charcoal stripped calf bovine serum, 50 U/ml penicillin G and 50 μg/ml streptomycin sulfate (DMEM-CBS) at 37° C. in 5% CO2. One day prior to transfection, cells were plated to 50-80% confluence using phenol-red free DMEM with 10% resin charcoal stripped fetal bovine serum (DMEM-FBS). Cells were transfected (with reporter construct (300 ng/10^5 cells), cytomegalovirus driven receptor (100 ng/10^5 cells) and β-galactosidase expression vectors (500 ng/10^5 cells) as indicated in FIG. 4) by lipofection using N-{2-(2,3)-dioleoyloxy)propyl-N,N,N-trimethyl ammonium methyl sulfate} according to the manufacturer's instructions (DOTAP, Boehringer Mannheim). […] Cells were harvested and assayed for luciferase and β-galactosidase activity. […] Data points were normalized for differences in transfection efficiency using β-galactosidase, and plotted as relative activity where the untreated reporter is defined to have an activity of 1 unit.
Based on the identification of an EcRE as a DNA target, a reporter plasmid was constructed containing 5 copies of the hsp27 response element linked to a truncated mouse mammary tumor virus promoter (Yao et al., Nature 366:476-479 (1993)). This reporter was cotransfected into CV-1 cells alone, or with expression vectors for FAR and/or RXRα. Cotransfected cells were treated with a variety of potential ligands and monitored for changes in luciferase activity.
Thus, with reference to FIG. 5A, CV-1 cells were transiently transfected with hsp27-EcRE×5 MTV-luciferase alone (−) or with expression vectors for rat FAR and/or human RXRα. Reporter activity was assayed after treating cells with or without 50 μM JH III.
CV-1 cells were transiently transfected as described above with reference to FIG. 5A, but treated with or without 50 μM JH III, 100 nM LG69 and JH III+LG69.
Thus, CV-1 cells were transiently transfected with expression vectors for rat FR and human RXRα, as described above in Example 3. […] Data is plotted in FIG. 6A as fold activation relative to untreated cells.

A further experiment concerns HMG-CoA reductase. To be noted: by a mevalonate-derived non-sterol; cited from earlier work.

`CC(C)=CCC/C(C)=C/CO` [geraniol]: the “activation of FAR-RXRα (in words)” value in experiment [1] (50 μM, FIG. 6A) is “little or no activation”.

Turning to `CC(C)=CCC/C(C)=C/CC/C(C)=C/CC/C(C)=C/CO` [geranylgeraniol], the “activation of FAR-RXRα (in words)” value in experiment [1] (50 μM, FIG. 6A) is listed as “weaker activity”.

As to `CC(C)=CCC[C@@H](C)[C@H]1CC[C@@]2(C)C3=C(CC[C@]12C)[C@@]1(C)CC[C@H](O)C(C)(C)[C@@H]1CC3` [lanosterol], the “activation of FAR-RXRα (in words)” value in experiment [1] (50 μM, FIG. 6A) is listed as “little or no activation”.

As for `CC(O)(CCO)CC(=O)O` (stereo not drawn) [mevalonate], the “activation of FAR-RXRα (in words)” value is “little or no activation” in experiment [1] (50 μM, FIG. 6A) and “weak activity” in experiment [1] (200 μM, cells cotransfected with a mevalonate transporter protein). Further, the “concentration added to cells at which down-regulation of HMG-CoA reductase activity occurs” value in the experiment with HMG-CoA reductase was more than 100 µM.

For `CC(=O)[C@H]1CC[C@H]2[C@@H]3CC=C4C[C@@H](O)CC[C@]4(C)[C@H]3CC[C@]12C` [pregnenolone], the “activation of FAR-RXRα (in words)” value in experiment [1] (50 μM, FIG. 6A) was “little or no activation”.

As for `CC(C)=CCC/C(C)=C/CC/C(C)=C/CC/C=C(\C)CC/C=C(\C)CCC1OC1(C)C` (stereo not drawn) [squalene epoxide], in experiment [1] (50 μM, FIG. 6A), the “activation of FAR-RXRα (in words)” value is recorded as “little or no activation”.

Consider `CC(C)=CCC/C(C)=C/CC/C(C)=C/CC/C=C(\C)CC/C=C(\C)CCC=C(C)C` [squalene], for which, in experiment [1] (50 μM, FIG. 6A), the “activation of FAR-RXRα (in words)” value is “little or no activation”.
